Measurements taken from ChEMBL document CHEMBL1123847, “Synthesis and structure-activity relationship of 1-aryl-6,8-difluoroquinolone antibacterial agents” (1987).
In brackets after ≈: the same amount, converted by molar mass.

Experiments:
Klebsiella aerogenes = test: In vitro antibacterial activity against Enterobacter aerogenes ATCC 13048; format: functional
Escherichia coli [1] = test: In vitro antibacterial activity against Escherichia coli Juhl; format: functional
Klebsiella pneumoniae = test: In vitro antibacterial activity against Klebsiella pneumoniae 8045; format: functional
Pseudomonas aeruginosa [2] = test: In vitro antibacterial activity against Pseudomonas aeruginosa K799/WT; format: functional
[3] = tested on: Staphylococcus epidermidis; test: In vitro antibacterial activity against Staphylococcus epidermis 3519; format: functional
Streptococcus pyogenes = test: In vitro antibacterial activity against Streptococcus pyogenes 930; format: functional
Staphylococcus aureus [4] = test: In vitro antibacterial activity against Staphylococcus aureus CMX 686B; format: functional
Staphylococcus aureus [5] = test: In vitro antibacterial activity against Staphylococcus aureus ATCC 6538P; format: functional
Enterococcus faecium = test: In vitro antibacterial activity against Streptococcus faecium ATCC 8043; format: functional
Acinetobacter = test: In vitro antibacterial activity against Acinetobacter CMX 669; format: functional
Pseudomonas aeruginosa [6] = test: In vitro antibacterial activity against Pseudomonas aeruginosa 5007; format: functional
Escherichia coli [7] = test: Compound was evaluated in vivo for antibacterial activity against Escherichia coli Juhl (100 X LD50) (p.o. administration); Range is between (2.8-6.5); format: functional; conditions: po
Escherichia coli [8] = test: Compound was evaluated in vivo for antibacterial activity against Escherichia coli Juhl (100 X LD50) (s.c. administration); Range is between (0.3-1.3); format: functional; conditions: sc
Escherichia coli [9] = test: Compound was evaluated in vivo for antibacterial activity against Escherichia coli Juhl (100 X LD50) (p.o. administration); Range is between (3.8-11.2); format: functional
Pseudomonas aeruginosa [10] = test: Compound was evaluated in vivo for antibacterial activity against Pseudomonas aeruginosa 5007 (100 X LD50) (s.c. administration); Range is between (1.0-2.5); format: functional; conditions: sc
Pseudomonas aeruginosa [11] = test: Compound was evaluated in vivo for antibacterial activity against Pseudomonas aeruginosa 5007 (100 X LD50);; format: functional
Staphylococcus aureus [12] = test: Compound was evaluated in vivo for antibacterial activity against Staphylococcus aureus NCTC 10649 (100 X LD50) (s.c. administration); Range is between (1.0-2.5); format: functional; conditions: sc
Pseudomonas aeruginosa [13] = test: Compound was evaluated in vivo for antibacterial activity against Pseudomonas aeruginosa 5007 (100 X LD50) (p.o. administration); Range is between (13.4-34.4); format: functional; conditions: po
Pseudomonas aeruginosa [14] = test: In vitro mouse protection test against Pseudomonas aeruginosa 5007 (100 X LD50) (subcutaneous administration; Range is between (1.1-3.8).; format: functional; conditions: sc
Pseudomonas aeruginosa [15] = test: […] against Pseudomonas aeruginosa 5007 (100 X LD50) (p.o. administration ); Range is between (6.8-26.2).; format: functional; conditions: po
Escherichia coli [16] = test: animal or person; conditions: in Mus musculus, sc
Escherichia coli [17] = test: animal or person; conditions: in Mus musculus, po
Staphylococcus aureus [18] = test: animal or person; conditions: in Mus musculus, po
Description: In vitro mouse protection test against Staphylococcus aureus NCTC 10649 (100 X LD50) (p.o. administration );Range is between (9.9-24.1)

Staphylococcus aureus [19] = test: animal or person; conditions: in Mus musculus, sc
Description: In vitro mouse protection test against Staphylococcus aureus NCTC 10649 (100 X LD50) (s.c. administration );Range is between (1.0-2.5)

Row | SMILES | MIC (Klebsiella aerogenes) [µg/mL] | MIC (Escherichia coli [1]) [µg/mL] | MIC (Klebsiella pneumoniae) [µg/mL] | MIC (Pseudomonas aeruginosa [2]) [µg/mL] | MIC [3] [µg/mL] | MIC (Streptococcus pyogenes) [µg/mL] | MIC (Staphylococcus aureus [4]) [µg/mL] | MIC (Staphylococcus aureus [5]) [µg/mL] | MIC (Enterococcus faecium) [µg/mL] | MIC (Acinetobacter) [µg/mL] | MIC (Pseudomonas aeruginosa [6]) [µg/mL] | also measured
1 | NC1CCN(c2c(F)cc3c(=O)c(C(=O)O)cn(-c4ccc(F)cc4F)c3c2F)C1 (stereo not drawn) | 0.2 (≈ 0.475 µM) | 0.1 (≈ 0.237 µM) | 0.1 (≈ 0.237 µM) | 0.78 (≈ 1.85 µM) | 0.39 (≈ 0.926 µM) | 0.78 (≈ 1.85 µM) | 0.2 (≈ 0.475 µM) | 0.2 (≈ 0.475 µM) | 1.56 (≈ 3.7 µM) | 0.39 (≈ 0.926 µM) | 1.56 (≈ 3.7 µM) | –
2 | NC1CCN(c2c(F)cc3c(=O)c(C(=O)O)cn(-c4ccc(F)cc4)c3c2F)C1 (stereo not drawn) | 0.2 (≈ 0.496 µM) | 0.2 (≈ 0.496 µM) | 0.05 (≈ 0.124 µM) | 1.56 (≈ 3.87 µM) | 0.39 (≈ 0.967 µM) | 1.56 (≈ 3.87 µM) | 0.2 (≈ 0.496 µM) | 0.2 (≈ 0.496 µM) | 3.1 (≈ 7.69 µM) | 0.78 (≈ 1.93 µM) | 3.1 (≈ 7.69 µM) | –
3 | CN1CCN(c2cc3c(cc2F)c(=O)c(C(=O)O)cn3-c2ccc(F)cc2)CC1 [DIFLOXACIN] | 0.78 (≈ 1.95 µM) | 0.2 (≈ 0.501 µM) | 0.1 (≈ 0.25 µM) | 1.56 (≈ 3.91 µM) | 0.39 (≈ 0.976 µM) | 1.56 (≈ 3.91 µM) | 0.2 (≈ 0.501 µM) | 0.2 (≈ 0.501 µM) | 1.56 (≈ 3.91 µM) | 0.78 (≈ 1.95 µM) | 0.78 (≈ 1.95 µM) | –
4 | Cl.O=C(O)c1cn(-c2ccc(F)cc2)c2cc(N3CCNCC3)c(F)cc2c1=O [SARAFLOXACIN HYDROCHLORIDE] | 0.2 | 0.05 | 0.02 | 0.39 | 0.39 | 0.78 | 0.2 | 0.2 | 1.56 | 0.2 | 0.39 | ED50 (Escherichia coli [7]): 4.3 mg/kg; ED50 (Escherichia coli [8]): 0.6 mg/kg; ED50 mg/kg (Escherichia coli [9]): 6.5; ED50 (Pseudomonas aeruginosa [10]): 1.6 mg/kg; MIC (Pseudomonas aeruginosa [11]): 0.39 µg/mL; ED50 (Staphylococcus aureus [12]): 1.6 mg/kg; ED50 (Pseudomonas aeruginosa [13]): 21.4 mg/kg
5 | CCn1cc(C(=O)O)c(=O)c2cc(F)c(N3CCNCC3)cc21 [NORFLOXACIN] | 0.2 (≈ 0.626 µM) | 0.1 (≈ 0.313 µM) | 0.1 (≈ 0.313 µM) | 0.39 (≈ 1.22 µM) | 1.56 (≈ 4.89 µM) | 3.1 (≈ 9.71 µM) | 0.78 (≈ 2.44 µM) | 0.78 (≈ 2.44 µM) | 0.78 (≈ 2.44 µM) | 6.2 (≈ 19.4 µM) | 0.39 (≈ 1.22 µM) | –
6 | O=C(O)c1cn(C2CC2)c2cc(N3CCNCC3)c(F)cc2c1=O [CIPROFLOXACIN] | 0.05 (≈ 0.151 µM) | – | 0.02 (≈ 0.0604 µM) | 0.1 (≈ 0.302 µM) | 0.39 (≈ 1.18 µM) | 0.39 (≈ 1.18 µM) | 0.39 (≈ 1.18 µM) | 0.2 (≈ 0.604 µM) | 0.2 (≈ 0.604 µM) | 1.56 (≈ 4.71 µM) | 0.1 (≈ 0.302 µM) | ED50 (Pseudomonas aeruginosa [14]): 2.1 mg/kg; ED50 (Pseudomonas aeruginosa [15]): 13.3 mg/kg; ED50 (Escherichia coli [16]): 0.2 mg/kg; ED50 (Escherichia coli [17]): 1.9 mg/kg; ED50 (Staphylococcus aureus [18]): 15.5 mg/kg; ED50 (Staphylococcus aureus [19]): 1.6 mg/kg
